# According to patent US5032577A, “Peptidylaminodiols” (Abbott Laboratories, priority 1987, dated 1991):
# Structures can show the parent of a compound that is named as a salt.
# Target: T1, human renal renin (Homo sapiens, UniProt P00797)
# T1 construct: human renal renin, free from acid proteolytic activity; from tissue
# T1 sequence (P00797 67-406): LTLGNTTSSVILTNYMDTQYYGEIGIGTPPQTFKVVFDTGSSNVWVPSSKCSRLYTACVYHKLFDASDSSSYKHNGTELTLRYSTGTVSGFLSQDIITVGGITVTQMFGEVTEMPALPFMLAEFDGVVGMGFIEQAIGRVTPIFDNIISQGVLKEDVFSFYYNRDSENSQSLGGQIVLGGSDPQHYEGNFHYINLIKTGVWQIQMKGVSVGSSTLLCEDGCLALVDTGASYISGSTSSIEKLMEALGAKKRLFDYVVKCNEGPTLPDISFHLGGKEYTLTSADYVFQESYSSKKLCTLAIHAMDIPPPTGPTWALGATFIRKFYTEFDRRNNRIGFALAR
# Test: Inhibition of human renal renin in vitro; angiotensin I formed measured by radioimmunoassay
# Assay type: biochemical
# Conditions: not given
row,SMILES,IC50
1,"CC(C)C[C@H](NC(=O)[C@H](Cc1ccccc1)NC(=O)CCCC(=O)O)C(=O)N[C@@H](CC1CCCCC1)[C@@H](O)[C@@H](O)CC(C)C [Example 184, 4-Carboxybutyroyl-Phe-Leu Amide of 2(S)-Amino-l-cyclohexyl-3(R),4(S)-dihydroxy-6-methylheptane]",0.59 nM
2,"COc1ccc(C[C@H](NC(=O)C2CCNCC2)C(=O)N[C@@H](Cc2c[nH]cn2)C(=O)N[C@@H](CC2CCCCC2)[C@@H](O)[C@@H](O)CC(C)C)cc1 [Example 179, H-Isonipecotyl-(4-OCH3)Phe-His Amide of 2(S)-Amino-1-cyclohexyl-3(R),4(S)-dihydroxy-6-methylheptane Diacetic Acid Salt]",1 nM
3,"CC(C)C[C@H](O)[C@H](O)[C@H](CC1CCCCC1)NC(=O)[C@H](Cc1c[nH]cn1)NC(=O)[C@H](Cc1ccccc1)NC(=O)CCN [Example 62, H-β-Ala-Phe-His Amide of 2(S)-Amino-l-cyclohexyl-3(R), 4(S)-dihydroxy-6-methylheptane Diacetic Acid Salt]",2 nM
4,"CC(C)C[C@H](O)[C@H](O)[C@H](CC1CCCCC1)NC(=O)[C@H](Cc1c[nH]cn1)NC(=O)[C@H](Cc1ccccc1)NC(=O)COCC(=O)O [Example 186, Carboxymethoxymethylcarbonyl-Phe-His Amide of 2(S)-Amino-1-cyclohexyl-3(R),4(S)-dihydroxy-6-methylheptane]",2 nM
5,"CC(C)C[C@H](NC(=O)[C@H](Cc1ccccc1)NC(=O)OCCCOC(=O)CN)C(=O)N[C@@H](CC1CCCCC1)[C@@H](O)[C@@H](O)CC(C)C [Example 93, H-Gly-Ester of the Resultant Compound of Example 91 (at 3-Hydroxypropyloxy Group)]",0.55 nM
6,"CC(C)C[C@H](O)[C@H](O)[C@H](CC1CCCCC1)NC(=O)[C@H](Cc1c[nH]cn1)NC(=O)C(Cc1ccccc1)Cc1ccccc1 [Example 27, Dba-His Amide of 2(S)-Amino-l-cyclohexyl-3(R),4(S)-dihydroxy-6-methylhectane]",7 nM
7,"CC(C)C[C@H](O)[C@H](O)[C@H](CC1CCCCC1)NC(=O)[C@H](Cc1c[nH]cn1)NC(=O)[C@H](Cc1ccccc1)NC(=O)CC(C)(C)N [Example 75, H-[(β,β-di-Me)-β-Ala]-Phe-His Amide of 2(S)-Amino-1-cyclohexyl-3(R),4(S)-dihydroxy-6-methylheptane Diacetic Acid Salt]",0.4 nM
8,"C=CCOC(=O)N[C@@H](Cc1ccccc1)C(=O)N[C@@H](CC(C)C)C(=O)N[C@@H](CC1CCCCC1)[C@@H](O)[C@@H](O)CC(C)C [Example 90, Allyloxycarbonyl-Phe-Leu Amide of 2(S)-Amino-l-cyclohexyl-3(R),4(S)-dihydroxy-6-methylheptaine]",0.4 nM
9,"CC(C)C[C@H](O)[C@H](O)[C@H](CC1CCCCC1)NC(=O)[C@H](Cc1c[nH]cn1)NC(=O)[C@H](Cc1ccccc1)NC(=O)CCNC(=O)OCc1ccccc1 [Example 61, Cbz-β-Ala-Phe-His Amide of 2(S)-Amino-l-cyclohexyl-3(R),4(S)-dihydroxy-6-methylheptane]",0.55 nM
10,"CC(C)C[C@@H](O)[C@H](O)[C@H](CC1CCCCC1)NC(=O)[C@H](Cc1c[nH]cn1)NC(=O)[C@H](Cc1ccccc1)NC(=O)OC(C)(C)C [Example 17, Boc-Phe-His Amide of 2(S)-Amino-l-cyclohexyl-3(R),4(R)-dihydroxy-6-methylheptane]",35 nM
11,"CCOC(=O)N[C@@H](Cc1ccccc1)C(=O)N[C@@H](CC(C)C)C(=O)N[C@@H](CC1CCCCC1)[C@@H](O)[C@@H](O)CC [Example 47, Ethoxycarbonyl-Phe-Leu Amide of 2(S)-Amino-1-cyclohexyl-3(R),4(S)-dihydroxyhexane]",1 nM
12,"COC(=O)C(CCCCC(=O)N[C@@H](Cc1ccc(OC)cc1)C(=O)N[C@@H](CC(C)C)C(=O)N[C@@H](CC1CCCCC1)[C@@H](O)[C@@H](O)CC(C)C)NC(=O)OCc1ccccc1 (stereo partly drawn) [Example 192, 6-(BenzYloxYcarbonyl)amino-6-(methoxycarbonyl)hexanoyl-(4-OMe)Phe-Leu Amide of 2(S)-Amino-l-cyclohexyl-3(R),4(S)-dihydroxy-6-methylheptane]",0.61 nM
13,"CC(=O)O[C@@H](Cc1ccccc1)C(=O)N[C@@H](Cc1c[nH]cn1)C(=O)N[C@@H](CC1CCCCC1)[C@@H](O)[C@@H](O)CC(C)C [Example 24, Ac-Pl-His Amide of 2(S)-Amino-l-cyclohexyl-3(R),4(S)-dihydroxy-6-methylheptane]",2 nM
14,"CC(C)C[C@H](O)[C@H](O)[C@H](CC1CCCCC1)NC(=O)[C@H](Cc1c[nH]cn1)NC(=O)CCc1ccccc1 [Example 28, Pp-His Amide of 2(S)-Amino-l-cyclohexyl-3(R),4(S)-dihydroxy-6-methylheptane]",80 nM
15,"CC(C)C[C@H](O)[C@H](O)[C@H](CC1CCCCC1)NC(=O)[C@H](Cc1c[nH]cn1)NC(=O)[C@H](Cc1ccccc1)OC(=O)N1CCOCC1 [Example 111, 2(S)-[(4-Morpholinyl)carbonyl]oxy-3-phenylpropionyl-His Amide of 2(S)-Amino-l-cyclohexyl-3(R),4(S)-dihydroxy-6-methylheptane]",0.5 nM
16,"CC(C)C[C@H](O)[C@H](O)[C@H](CC1CCCCC1)NC(=O)[C@H](Cc1c[nH]cn1)NC(=O)[C@H](Cc1ccccc1)NC(=O)C1CCN(C(=O)OCc2ccccc2)CC1 [Example 67, Cbz-Isonipectoyl-Phe-His Amide of 2(S)-Amino-l-cyclohexyl-3(R),4(S)-dihydroxy-6-methylheptane]",0.8 nM
17,"CC(C)C[C@H](NC(=O)[C@H](Cc1ccccc1)NCCC#N)C(=O)N[C@@H](CC1CCCCC1)[C@@H](O)[C@@H](O)CC(C)C [Example 58, [N-(2-Cyanoethyl)]Phe-Leu Amide of 2(S)-Amino-1-cyclohexyl-3(R),4(S)-dihydroxy-6-methylheptane]",7 nM
18,"CC(C)C[C@H](O)[C@H](O)[C@H](CC1CCCCC1)NC(=O)[C@H](Cc1c[nH]cn1)NC(=O)C(CC(=O)N1CCOCC1)Oc1ccccc1 (single isomer, unassigned) [Example 141]",5.5 nM
19,"COc1ccc(C[C@@H](C(=O)N[C@@H](CC(C)C)C(=O)N[C@@H](CC2CCCCC2)[C@@H](O)[C@@H](O)CC(C)C)N(C)C)cc1 [Example 56, (N,N-Dimethyl,4-methoxy)-Phe-Leu Amide of 2(S)-Amino-1-cyclohexyl-3(R),4(S)-dihydroxy-6-methylheptane]",5.5 nM
20,"COc1ccc(C[C@H](NC(=O)CCCCC(N)C(=O)O)C(=O)N[C@@H](CC(C)C)C(=O)N[C@@H](CC2CCCCC2)[C@@H](O)[C@@H](O)CC(C)C)cc1 (stereo partly drawn) [Example 194, 6-Amino-6-carboxyhexanoyl-(4-OMe)Phe-Leu Amide of 2(S)-Amino-l-cyclohexyl-3(R),4(S)-dihydroxy-6-methylheptane]",2.3 nM
21,"CC(C)C[C@H](NC(=O)[C@H](Cc1ccccc1)NC(=O)OCC(O)CO)C(=O)N[C@@H](CC1CCCCC1)[C@@H](O)[C@@H](O)CC(C)C (stereo partly drawn) [Example 97, 2(R,S),3-Dihydroxypropyloxycarbonyl-Phe-Leu Amide of 2(S) -Amino-1-cyclohexyl-3(R),4(S)-dihydroxy-6-methylheptane]",0.3 nM
22,"CC(C)C[C@H](O)[C@H](O)[C@H](CC1CCCCC1)NC(=O)[C@H](Cc1c[nH]cn1)NC(=O)C(CC(=O)N1CCOCC1)Cc1ccccc1 (single isomer, unassigned) [Example 143]",0.3 nM

# Same assay, conditions: human renal renin free from acid proteolytic activity, renin substrate human angiotensinogen, 37° C., pH 6.0
row,SMILES,IC50
1,"CC(C)C[C@H](O)[C@H](O)[C@H](CC1CCCCC1)NC(=O)[C@H](Cc1ccccc1)NC(=O)[C@H](Cc1ccccc1)NC(=O)OC(C)(C)C [Example 34, Boc-Phe-Phe Amide of 2(S)-Amino-l-cyclohexyl-3(R),4(S)-dihYdroxy-6-methYlheptane]",1.5 nM
2,"CC(C)C[C@H](O)[C@H](O)[C@H](CC1CCCCC1)NC(=O)[C@H](Cc1c[nH]cn1)NC(=O)[C@H](Cc1ccccc1)NC(=O)OC(C)(C)C [Example 15, Boc-Phe-His Amide of 2(S)-Amino-l-cyclohexyl-3(R),4(S)-dihydroxy-6-methylheptane]",1.5 nM
3,"CC(C)[C@H](O)[C@H](O)[C@H](CC1CCCCC1)NC(=O)[C@H](Cc1c[nH]cn1)NC(=O)[C@H](Cc1ccccc1)NC(=O)OC(C)(C)C [Example 46, Boc-Phe-His Amide of 2(S)-Amino-l-cyclohexyl-3(R),4(S)-dihydroxy-5-methylhexane]",1.5 nM
4,"CC(C)C[C@H](O)[C@H](O)[C@H](CC1CCCCC1)NC(=O)[C@H](C)NC(=O)[C@H](Cc1ccccc1)NC(=O)OC(C)(C)C [Example 33, Boc-phe-Ala Amide of 2(S)-Amino-l-cyclohexyl-3(R),4(S)-dihydroxy-6-methylheptane]",5 nM
5,"C[C@H](O)[C@H](O)[C@H](CC1CCCCC1)NC(=O)[C@H](Cc1c[nH]cn1)NC(=O)[C@H](Cc1ccccc1)NC(=O)OC(C)(C)C [Example 49, Boc-Phe-His Amide of 2(S)-Amino-l-cyclohexyl-3(R),4(S)-dihydroxypentane]",2 nM
6,"CC(C)C[C@H](NC(=O)OC(C)(C)C)C(=O)N[C@@H](Cc1c[nH]cn1)C(=O)N[C@@H](CC1CCCCC1)[C@@H](O)[C@@H](O)CC(C)C [Example 31, Boc-Leu-His Amide of 2(S)-Amino-l-cyclohexyl-3(R),4(S)-dihydroxy-6-methylheptane]",1 nM
7,"CC(C)C[C@H](O)[C@@H](O)[C@H](CC1CCCCC1)NC(=O)[C@H](Cc1c[nH]cn1)NC(=O)[C@H](Cc1ccccc1)NC(=O)OC(C)(C)C [Example 16, Boc-Phe-His Amide of 2(S)-Amino-l-cyclohexyl-3(S),4(S)-dihydroxy-6-methylheptane]",70 nM
